Data published in patent US7906655B2, “Hepatitis C virus inhibitors” (Bristol-Myers Squibb Company, priority 2008, dated 2011).

system: HCV 1b genotype; experiment: HCV Replicon assay (HCV-neo replicon cells, wild-type); format: cell-based; details: HCV 1b genotype replicon; class symbols
Description: An HCV Replicon assay was utilized in the present disclosure, and was prepared, conducted and validated as described in commonly owned PCT/US2006/022197 and in O'Boyle et. al. Antimicrob Agents Chemother. 2005 April; 49 (4):1346-53. Assay methods incorporating luciferase reporters have also been used as described (Apath.com).
HCV-neo replicon cells and replicon cells containing mutations in the NS5A region were used to test the currently described family of compounds. The compounds were determined to have more than 10-fold less inhibitory activity on cells containing mutations than wild-type cells. Thus, the compounds of the present disclosure can be effective in inhibiting the function of the HCV NS5A protein and are understood to be as effective in combinations as previously described in application PCT/US2006/022197 and commonly owned WO/O4014852. Further, the compounds of the present disclosure can be effective against the HCV 1b genotype. It should also be understood that the compounds of the present disclosure can inhibit multiple genotypes of HCV. […] In one embodiment, compounds of the present disclosure are inhibitory versus 1a, 1b, 2a, 2b, 3a, 4a, and 5a genotypes.

Question: For `CN(C)[C@@H](C(=O)N1CCC[C@H]1c1nc2cc(-c3cnc(-c4cccc5[nH]c([C@@H]6C[C@@H]7C[C@@H]7N6C(=O)[C@@H](c6ccccc6)N(C)C)nc45)o3)ccc2[nH]1)c1ccccc1` (single isomer, unassigned) [Example J25.a], which EC50 is on record?
Answer: The EC50 was 4.57 to 99 nM.

Question: How did the EC50 turn out when `COC(=O)N[C@@H](C(=O)N1C2C[C@@H]2C[C@H]1c1nc2cc(-c3ccc(-c4ccc5[nH]c([C@@H]6C[C@H]7CC7N6C(=O)[C@H](NC(=O)OC)c6ccccc6)nc5c4)cc3)ccc2[nH]1)c1ccccc1` (single isomer, unassigned) [Example M46.2] was run?
Answer: The EC50 was less than 4.57 nM.

same assay, conditions: Hepatitis C virus, HCV 1b genotype replicon; class symbols

Question: How did the EC50 turn out when `COC(=O)N[C@@H](C(=O)N1CCC[C@H]1c1nc2c(-c3ncc(-c4ccc5[nH]c([C@@H]6CCCN6C(=O)[C@H](NC(C)=O)c6ccccc6)nc5c4)o3)cccc2[nH]1)c1ccccc1` (mixture of isomers) [Example J6.1, methyl ((1R)-2-((2S)-2-(4-(5-(2-((2S)-1-(acetamido (phenyl)acetyl)-2-pyrrolidinyl)-1H-benzimidazol-5-yl)-1,3-oxazol-2-yl)-1H-benzimidazol-2-yl)-1-pyrrolidinyl)-2-oxo-1-phenylethyl) carbamate] was run?
Answer: The EC50 was less than 4.57 nM.

Question: Which EC50 does the source give for `CC(=O)NC(C(=O)N1CCC[C@H]1c1nc2cc(-c3cnc(-c4cccc5[nH]c([C@@H]6CCCN6C(=O)C(NC(C)=O)c6ccccc6)nc45)o3)ccc2[nH]1)c1ccccc1` (mixture of isomers) [Example J12.1, N-((1R)-2-((2S)-2-(4-(5-(2-((2S)-1-((2R)-2-acetamido-2-phenylacetyl)-2-pyrrolidinyl)-1H-benzimidazol-5-yl)-1,3-oxazol-2-yl)-1H-benzimidazol-2-yl)-1-pyrrolidinyl)-2-oxo-1-phenylethyl) acetamide] here?
Answer: The EC50 was 4.57 to 99 nM.

Question: How did the EC50 turn out when `CN(C)[C@@H](C(=O)N1CCC[C@H]1c1nc2cc(-c3cnc(-c4cccc5[nH]c([C@@H]6C[C@@H]7C[C@@H]7N6C(=O)[C@@H](c6ccccc6)N(C)C)nc45)o3)ccc2[nH]1)c1ccccc1` (single isomer, unassigned) [Example J25] was run?
Answer: Its EC50 is less than 4.57 nM.

Question: Which EC50 does the source give for `COC(=O)N[C@@H](C(=O)N1C2C[C@@H]2C[C@H]1c1nc2cc(-c3ccc(-c4ccc5[nH]c([C@@H]6C[C@H]7CC7N6C(=O)[C@H](NC(=O)OC)c6ccccc6)nc5c4)cc3)ccc2[nH]1)c1ccccc1` (single isomer, unassigned) [Example M46.1] here?
Answer: Its EC50 is less than 4.57 nM.

Question: `CC(=O)N1CCN(C(=O)OCc2ccccc2)[C@H](c2nc3cc(CCc4ccc5[nH]c([C@@H]6CN(C(C)=O)CCN6C(=O)OCc6ccccc6)nc5c4)ccc3[nH]2)C1` (stereo in doubt) [OL11, benzyl 4-acetyl-2-(5-(2-(2-(4-acetyl-1-((benzyloxy)carbonyl)-2-piperazinyl)-1H-benzimidazol-6-yl)ethyl)-1H-benzimidazol-2-yl)-1-piperazinecarboxylate] was tested. Which EC50 did it give?
Answer: The EC50 was 100 to 999 nM.

Question: How did the EC50 turn out when `CN(C)C(C(=O)N1CCC[C@H]1c1nc2ccc(-c3ccc4[nH]c([C@@H]5CCCN5C(=O)[C@@H](c5ccccc5)N(C)C)nc4c3)cc2[nH]1)c1ccccc1` (stereo partly drawn) [Example F1, (1R,1′R)-2,2′-(1H,1′H-5,5′-bibenzimidazole-2,2′-diyldi(2S)-2,1-pyrrolidinediyl)bis(N,N-dimethyl-2-oxo-1-phenylethanamine)] was run?
Answer: The EC50 was less than 4.57 nM.

Question: For `COC(=O)N[C@@H](C(=O)N1CCC[C@H]1c1nc2cc(-c3ccc4nc([C@@H]5CCCN5C(=O)[C@H](NC(=O)OC)c5ccccc5)[nH]c4c3)ccc2[nH]1)c1ccccc1` [Example F2, dimethyl(1H,1′H-5,5′-bibenzimidazole-2,2′-diylbis((2S)-2,1-pyrrolidinediyl((1R)-2-oxo-1-phenyl-2,1-ethanediyl)))biscarbamate], which EC50 is on record?
Answer: The EC50 was less than 4.57 nM.

Question: Which EC50 does the source give for `O=C(Cc1ccccc1)N1CCCC[C@H]1c1nc2ccc(CCc3ccc4nc([C@@H]5CCCCN5C(=O)Cc5ccccc5)[nH]c4c3)cc2[nH]1` [Example F3, 5,5′-(1,2-ethanediyl)bis(2-((2S)-1-(phenylacetyl)-2-piperidinyl)-1H-benzimidazole)] here?
Answer: Its EC50 is 100 to 999 nM.

Question: With `CO[C@@H]1C[C@@H](c2nc3cc(CCc4ccc5nc([C@@H]6C[C@@H](OC)CN6C(=O)OCc6ccccc6)[nH]c5c4)ccc3[nH]2)N(C(=O)OCc2ccccc2)C1` [Example F4, benzyl (2S,4R)-2-(5-(2-(2-((2S,4R)-1-((benzyloxy)carbonyl)-4-methoxy-2-pyrrolidinyl)-1H-benzimidazol-6-yl)ethyl)-1H-benzimidazol-2-yl)-4-methoxy-1-pyrrolidinecarboxylate] as the compound, how does the EC50 read?
Answer: Its EC50 is less than 4.57 nM.

Question: With `CCO[C@@H]1C[C@@H](c2nc3cc(CCc4ccc5nc([C@@H]6C[C@@H](OCC)CN6C(=O)OCc6ccccc6)[nH]c5c4)ccc3[nH]2)N(C(=O)OCc2ccccc2)C1` [Example F5, benzyl (2S,4R)-2-(5-(2-(2-((2S,4R)-1-((benzyloxy)carbonyl)-4-ethoxy-2-pyrrolidinyl)-1H-benzimidazol-6-yl)ethyl)-1H-benzimidazol-2-yl)-4-ethoxy-1-pyrrolidinecarboxylate] as the compound, how does the EC50 read?
Answer: The EC50 was 4.57 to 99 nM.

Question: With `CC(=O)N[C@@H](C(=O)N1CCC[C@H]1c1nc2cc(-c3ccc4nc([C@@H]5CCCN5C(=O)[C@H](NC(C)=O)c5ccccc5)[nH]c4c3)ccc2[nH]1)c1ccccc1` [Example F7, N,N′-(1H,1′H-5,5′-bibenzimidazole-2,2′-diylbis((2S)-2,1-pyrrolidinediyl((1R)-2-oxo-1-phenyl-2,1-ethanediyl)))diacetamide] as the compound, how does the EC50 read?
Answer: Its EC50 is 4.57 to 99 nM.

Question: How did the EC50 turn out when `CO[C@@H]1C[C@@H](c2nc3cc(C#Cc4ccc5nc([C@@H]6C[C@@H](OC)CN6C(=O)OCc6ccccc6)[nH]c5c4)ccc3[nH]2)N(C(=O)OCc2ccccc2)C1` [Example F8, benzyl (2S,4R)-2-(5-((2-((2S,4R)-1-((benzyloxy)carbonyl)-4-methoxy-2-pyrrolidinyl)-1H-benzimidazol-6-yl)ethynyl)-1H-benzimidazol-2-yl)-4-methoxy-1-pyrrolidinecarboxylate] was run?
Answer: Its EC50 is less than 4.57 nM.

Question: Which EC50 does the source give for `CC(C)(C)O[C@@H]1C[C@@H](c2nc3cc(C#Cc4ccc5nc([C@@H]6C[C@@H](OC(C)(C)C)CN6C(=O)OCc6ccccc6)[nH]c5c4)ccc3[nH]2)N(C(=O)OCc2ccccc2)C1` [Example F10, benzyl (2S,4R)-2-(5-((2-((2S,4R)-1-((benzyloxy)carbonyl)-4-tert-butoxy-2-pyrrolidinyl)-1H-benzimidazol-6-yl)ethynyl)-1H-benzimidazol-2-yl)-4-tert-butoxy-1-pyrrolidinecarboxylate] here?
Answer: Its EC50 is 4.57 to 99 nM.

Question: `O=C(OCc1ccccc1)N1C[C@H](O)C[C@H]1c1nc2cc(C#Cc3ccc4[nH]c([C@@H]5C[C@@H](O)CN5C(=O)OCc5ccccc5)nc4c3)ccc2[nH]1` [Example F11] was tested. Which EC50 did it give?
Answer: The EC50 was less than 4.57 nM.

Question: For `COC(=O)N[C@@H](C(=O)N1CCC[C@H]1c1nc2cc(-c3cnc(-c4cccc5[nH]c([C@@H]6CCCN6C(=O)[C@H](NC(=O)OC)c6ccccc6)nc45)o3)ccc2[nH]1)c1ccccc1` [Example J6, Methyl((1R)-2-((2S)-2-(4-(5-(2-((2S)-1-((2R)-2-((methoxycarbonyl)amino)-2-phenylacetyl)-2-pyrrolidinyl)-1H-benzimidazol-5-yl)-1,3-oxazol-2-yl)-1H-benzimidazol-2-yl)-1-pyrrolidinyl)-2-oxo-1-phenylethyl)carbamate], which EC50 is on record?
Answer: Its EC50 is less than 4.57 nM.

Question: How did the EC50 turn out when `O=C(Cc1ccccc1)N1CCC[C@H]1c1nc2cc(-c3cnc(-c4cccc5[nH]c([C@@H]6CCCN6C(=O)Cc6ccccc6)nc45)o3)ccc2[nH]1` [Example J7, 2-((2S)-1-(phenylacetyl)-2-pyrrolidinyl)-4-(5-(2-((2S)-1-(phenylacetyl)-2-pyrrolidinyl)-1H-benzimidazol-5-yl)-1,3-oxazol-2-yl)-1H-benzimidazole] was run?
Answer: The EC50 was 4.57 to 99 nM.

Question: With `COC(=O)N[C@@H](C)C(=O)N1CCC[C@H]1c1nc2cc(-c3cnc(-c4cccc5[nH]c([C@@H]6CCCN6C(=O)[C@H](C)NC(=O)OC)nc45)o3)ccc2[nH]1` [Example J8, methyl ((1S)-2-((2S)-2-(5-(2-(2-((2S)-1-(N-(methoxy-carbonyl)-L-alanyl)-2-pyrrolidinyl)-1H-benzimidazol-4-yl)-1,3-oxazol-5-yl)-1H-benzimidazol-2-yl)-1-pyrrolidinyl)-1-methyl-2-oxoethyl) carbamate] as the compound, how does the EC50 read?
Answer: Its EC50 is less than 4.57 nM.

Question: How did the EC50 turn out when `O=C([C@H](O)c1ccccc1)N1CCC[C@H]1c1nc2cc(-c3cnc(-c4cccc5[nH]c([C@@H]6CCCN6C(=O)[C@H](O)c6ccccc6)nc45)o3)ccc2[nH]1` [Example J9, (1R)-2-((2S)-2-(4-(5-(2-((2S)-1-((2R)-2-hydroxy-2-phenylacetyl)-2-pyrrolidinyl)-1H-benzimidazol-5-yl)-1,3-oxazol-2-yl)-1H-benzimidazol-2-yl)-1-pyrrolidinyl)-2-oxo-1-phenylethanol] was run?
Answer: The EC50 was 4.57 to 99 nM.

same assay, conditions: Hepatitis C virus, HCV 1b genotype replicon; numeric values

Question: With `CCCO[C@@H]1C[C@@H](c2nc3cc(CCc4ccc5nc([C@@H]6C[C@@H](OCCC)CN6C(=O)OCc6ccccc6)[nH]c5c4)ccc3[nH]2)N(C(=O)OCc2ccccc2)C1` [Example F6, benzyl (2S,4R)-2-(5-(2-(2-((2S,4R)-1-((benzyloxy)carbonyl)-4-propoxy-2-pyrrolidinyl)-1H-benzimidazol-6-yl)ethyl)-1H-benzimidazol-2-yl)-4-propoxy-1-pyrrolidinecarboxylate] as the compound, how does the EC50 read?
Answer: The EC50 was 480 nM.

Question: For `CCO[C@@H]1C[C@@H](c2nc3cc(C#Cc4ccc5nc([C@@H]6C[C@@H](OCC)CN6C(=O)OCc6ccccc6)[nH]c5c4)ccc3[nH]2)N(C(=O)OCc2ccccc2)C1` [Example F9, benzyl (2S,4R)-2-(5-((2-((2S,4R)-1-((benzyloxy)carbonyl)-4-ethoxy-2-pyrrolidinyl)-1H-benzimidazol-6-yl)ethynyl)-1H-benzimidazol-2-yl)-4-ethoxy-1-pyrrolidinecarboxylate], which EC50 is on record?
Answer: The EC50 was 20 nM.
